What was measured:
[1] = target: cGMP-specific 3',5'-cyclic phosphodiesterase (Homo sapiens, UniProt O76074); assay: Inhibition of PDE5A
[2] = target: Dual specificity calcium/calmodulin-dependent 3',5'-cyclic nucleotide phosphodiesterase 1B (Homo sapiens, UniProt Q01064); assay: Inhibition of PDE1B
[3] = test system: Plasma; assay: Drug level in mouse plasma at 2 mg/kg, po; assay type: ADME, organism-based; set-up: dose 2 mg/kg, route oral; details: in vivo
[4] = test system: Brain; assay: Drug level in mouse brain measured per gram of tissue at 2 mg/kg, po; assay type: ADME, organism-based; set-up: dose 2 mg/kg, route oral; details: in vivo
[5] = Ratio of drug level in brain to plasma in mouse at 2 mg/kg, po; assay type: ADME, organism-based; set-up: dose 2 mg/kg, route oral; details: read-out: BPR
[6] = target: 3',5'-cyclic-AMP phosphodiesterase 4D (Homo sapiens, UniProt Q08499); assay: Inhibition of PDE4D6
[7] = target: cGMP-inhibited 3',5'-cyclic phosphodiesterase 3A (Homo sapiens, UniProt Q14432); assay: Inhibition of PDE3A
[8] = target: 3',5'-cyclic-AMP phosphodiesterase 7B (Homo sapiens, UniProt Q9NP56); assay: Inhibition of PDE7B
[9] = target: cAMP and cAMP-inhibited cGMP 3',5'-cyclic phosphodiesterase 10A (Homo sapiens, UniProt Q9Y233); assay: Inhibition of human PDE10A expressed in Sf9 cells using [3H]cAMP by scintillation proximity assay
[10] = test system: Plasma; assay: Drug level in mouse plasma at 5 mg/kg, sc; assay type: ADME, organism-based; set-up: dose 5 mg/kg, route subcutaneous; details: in vivo
[11] = test system: Brain; assay: Drug level in mouse brain measured per gram of tissue at 5 mg/kg, sc; assay type: ADME, organism-based; set-up: dose 5 mg/kg, route subcutaneous; details: in vivo
[12] = Ratio of drug level in brain to plasma in mouse at 5 mg/kg, sc; assay type: ADME, organism-based; set-up: dose 5 mg/kg, route subcutaneous; details: read-out: BPR

Sequence of cAMP and cAMP-inhibited cGMP 3',5'-cyclic phosphodiesterase 10A (Q9Y233 whole entry): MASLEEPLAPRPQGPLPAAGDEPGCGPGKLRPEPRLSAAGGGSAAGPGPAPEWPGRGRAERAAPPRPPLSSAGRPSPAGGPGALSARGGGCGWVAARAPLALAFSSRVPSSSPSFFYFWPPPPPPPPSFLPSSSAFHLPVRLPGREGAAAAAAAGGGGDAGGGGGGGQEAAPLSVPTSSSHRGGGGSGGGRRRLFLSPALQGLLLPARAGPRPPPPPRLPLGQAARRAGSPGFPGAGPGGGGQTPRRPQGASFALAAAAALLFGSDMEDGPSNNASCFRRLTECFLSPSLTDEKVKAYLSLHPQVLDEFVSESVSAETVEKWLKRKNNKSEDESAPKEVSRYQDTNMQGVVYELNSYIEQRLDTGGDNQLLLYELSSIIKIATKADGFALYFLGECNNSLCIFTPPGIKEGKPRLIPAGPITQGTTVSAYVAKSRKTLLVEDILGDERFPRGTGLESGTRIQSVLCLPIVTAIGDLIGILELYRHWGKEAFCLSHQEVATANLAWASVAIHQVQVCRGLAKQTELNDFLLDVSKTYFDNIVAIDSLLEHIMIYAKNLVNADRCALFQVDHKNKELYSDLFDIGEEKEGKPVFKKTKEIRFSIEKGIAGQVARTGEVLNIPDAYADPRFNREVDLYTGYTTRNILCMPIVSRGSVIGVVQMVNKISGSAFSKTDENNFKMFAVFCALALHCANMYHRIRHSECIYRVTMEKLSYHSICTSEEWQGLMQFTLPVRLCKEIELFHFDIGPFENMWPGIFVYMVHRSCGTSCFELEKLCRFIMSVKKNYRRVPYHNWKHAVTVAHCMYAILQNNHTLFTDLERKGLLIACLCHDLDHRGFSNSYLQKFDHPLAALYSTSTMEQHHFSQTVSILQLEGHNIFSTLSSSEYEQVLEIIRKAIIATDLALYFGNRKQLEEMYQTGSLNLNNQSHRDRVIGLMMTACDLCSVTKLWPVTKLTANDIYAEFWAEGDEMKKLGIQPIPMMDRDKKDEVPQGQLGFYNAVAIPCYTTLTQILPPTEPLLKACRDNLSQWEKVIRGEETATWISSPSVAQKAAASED
Sequence of 3',5'-cyclic-AMP phosphodiesterase 4D (Q08499 whole entry): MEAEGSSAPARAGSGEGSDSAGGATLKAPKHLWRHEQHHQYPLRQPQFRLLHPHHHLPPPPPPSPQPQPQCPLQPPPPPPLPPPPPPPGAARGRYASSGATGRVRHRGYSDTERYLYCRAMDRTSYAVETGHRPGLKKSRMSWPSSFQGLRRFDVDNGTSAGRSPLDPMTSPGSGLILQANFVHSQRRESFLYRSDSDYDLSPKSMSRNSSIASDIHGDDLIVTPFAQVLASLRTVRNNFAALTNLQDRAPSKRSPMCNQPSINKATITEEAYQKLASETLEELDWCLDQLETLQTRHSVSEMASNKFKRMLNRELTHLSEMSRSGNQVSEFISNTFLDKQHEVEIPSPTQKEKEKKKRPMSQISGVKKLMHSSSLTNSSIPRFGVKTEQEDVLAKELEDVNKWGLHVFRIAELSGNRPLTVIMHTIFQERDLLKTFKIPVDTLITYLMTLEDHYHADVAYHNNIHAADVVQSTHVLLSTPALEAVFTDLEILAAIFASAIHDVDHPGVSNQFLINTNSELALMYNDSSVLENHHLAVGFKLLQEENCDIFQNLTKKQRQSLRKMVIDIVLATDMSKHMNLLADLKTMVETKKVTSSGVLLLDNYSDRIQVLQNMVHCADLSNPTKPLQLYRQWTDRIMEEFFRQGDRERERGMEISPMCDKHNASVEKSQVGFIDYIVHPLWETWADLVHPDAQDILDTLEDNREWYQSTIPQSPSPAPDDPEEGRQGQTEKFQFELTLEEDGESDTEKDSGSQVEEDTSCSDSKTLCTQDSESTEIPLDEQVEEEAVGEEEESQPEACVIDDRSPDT
Sequence of 3',5'-cyclic-AMP phosphodiesterase 7B (Q9NP56 whole entry): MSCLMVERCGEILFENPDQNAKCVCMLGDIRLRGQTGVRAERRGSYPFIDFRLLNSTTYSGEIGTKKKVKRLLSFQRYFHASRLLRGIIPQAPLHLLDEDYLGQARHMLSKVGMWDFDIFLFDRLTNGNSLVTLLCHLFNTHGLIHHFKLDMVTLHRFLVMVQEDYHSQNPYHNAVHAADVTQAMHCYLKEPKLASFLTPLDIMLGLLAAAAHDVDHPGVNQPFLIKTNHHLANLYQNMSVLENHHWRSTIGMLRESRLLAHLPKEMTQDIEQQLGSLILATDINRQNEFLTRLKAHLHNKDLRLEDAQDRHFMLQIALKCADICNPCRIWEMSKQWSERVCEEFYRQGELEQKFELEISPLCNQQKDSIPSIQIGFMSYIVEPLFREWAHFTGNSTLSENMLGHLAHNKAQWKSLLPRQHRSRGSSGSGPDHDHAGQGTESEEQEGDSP
Sequence of cGMP-inhibited 3',5'-cyclic phosphodiesterase 3A (Q14432 whole entry): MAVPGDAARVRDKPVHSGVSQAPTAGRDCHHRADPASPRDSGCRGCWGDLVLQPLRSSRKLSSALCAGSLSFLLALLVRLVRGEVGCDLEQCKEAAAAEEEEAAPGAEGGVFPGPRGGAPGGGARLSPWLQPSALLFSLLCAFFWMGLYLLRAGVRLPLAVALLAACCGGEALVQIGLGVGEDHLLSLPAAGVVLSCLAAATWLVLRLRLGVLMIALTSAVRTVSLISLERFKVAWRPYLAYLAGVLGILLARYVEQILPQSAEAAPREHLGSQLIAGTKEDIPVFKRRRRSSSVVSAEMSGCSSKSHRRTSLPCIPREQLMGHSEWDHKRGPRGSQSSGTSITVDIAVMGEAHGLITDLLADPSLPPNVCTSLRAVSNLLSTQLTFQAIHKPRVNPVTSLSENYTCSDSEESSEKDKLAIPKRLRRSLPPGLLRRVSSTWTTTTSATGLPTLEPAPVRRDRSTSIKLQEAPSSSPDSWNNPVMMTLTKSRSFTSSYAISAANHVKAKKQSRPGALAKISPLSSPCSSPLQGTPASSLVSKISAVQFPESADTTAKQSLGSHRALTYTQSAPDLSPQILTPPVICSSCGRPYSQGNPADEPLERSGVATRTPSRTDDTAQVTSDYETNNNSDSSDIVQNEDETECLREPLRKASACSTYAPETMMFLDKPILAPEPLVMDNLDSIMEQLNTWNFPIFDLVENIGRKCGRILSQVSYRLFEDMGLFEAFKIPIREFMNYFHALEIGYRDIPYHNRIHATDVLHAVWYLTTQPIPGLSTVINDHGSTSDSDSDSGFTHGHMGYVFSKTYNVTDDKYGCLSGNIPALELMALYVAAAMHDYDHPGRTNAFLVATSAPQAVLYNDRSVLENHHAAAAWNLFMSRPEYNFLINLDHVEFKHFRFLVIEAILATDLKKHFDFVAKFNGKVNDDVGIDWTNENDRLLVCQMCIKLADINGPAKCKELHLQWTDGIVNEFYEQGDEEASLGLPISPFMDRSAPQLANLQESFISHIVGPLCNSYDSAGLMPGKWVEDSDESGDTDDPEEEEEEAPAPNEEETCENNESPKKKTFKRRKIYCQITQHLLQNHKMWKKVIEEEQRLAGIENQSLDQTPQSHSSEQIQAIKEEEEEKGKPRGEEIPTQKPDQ
Sequence of Dual specificity calcium/calmodulin-dependent 3',5'-cyclic nucleotide phosphodiesterase 1B (Q01064 whole entry): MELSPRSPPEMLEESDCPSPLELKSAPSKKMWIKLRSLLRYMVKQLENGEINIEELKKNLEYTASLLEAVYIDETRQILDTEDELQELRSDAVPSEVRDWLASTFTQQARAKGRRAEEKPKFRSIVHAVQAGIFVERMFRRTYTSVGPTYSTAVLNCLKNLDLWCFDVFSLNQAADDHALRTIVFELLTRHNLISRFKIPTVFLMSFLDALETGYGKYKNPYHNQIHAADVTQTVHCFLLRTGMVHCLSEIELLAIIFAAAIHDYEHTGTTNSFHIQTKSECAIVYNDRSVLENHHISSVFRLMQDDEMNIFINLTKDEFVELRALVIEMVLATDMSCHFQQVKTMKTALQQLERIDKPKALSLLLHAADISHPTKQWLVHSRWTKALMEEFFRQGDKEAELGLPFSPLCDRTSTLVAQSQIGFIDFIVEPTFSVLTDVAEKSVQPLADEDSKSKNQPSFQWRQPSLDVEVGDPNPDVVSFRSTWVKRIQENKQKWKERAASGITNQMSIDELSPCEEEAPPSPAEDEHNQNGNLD

Structure (SMILES)	IC50 [9] [nM]	also measured
Cc1nc2c3ccccc3nc(SCc3nc4ccccc4[nH]3)n2n1		IC50 [1]: 10000 nM; IC50 [2]: 10000 nM; Drug uptake [3]: 629 ng/mL; Drug uptake [4]: < 25 ng/mL; Kp [5]: < 0.04; IC50 [6]: 10000 nM; IC50 [7]: 10000 nM; IC50 [8]: 10000 nM
Cc1cc2c3ccc(Cl)cc3nc(CSc3nc(-c4ccccc4)cn3C)n2n1	130	
Cc1cc2c3cc(Cl)ccc3nc(CSc3nc(-c4ccccc4)cn3C)n2n1	110	
COc1cccc2c1nc(CSc1nc(-c3ccccc3)cn1C)n1nc(C)cc21	83	
COc1ccc2c(c1)nc(CSc1nc(-c3ccccc3)cn1C)n1nc(C)cc21	100	
Cc1cc2c3cccc(C)c3nc(CSc3nc(-c4ccccc4)cn3C)n2n1	160	
COc1ccc2nc(CCc3nc(-c4ccccc4)cn3C)n3nc(C)cc3c2c1	430	
Cc1cc2c3cccc(C)c3nc(CCc3nc(-c4ccccc4)cn3C)n2n1	78	

The next lines start with results.

IC50 [9] [nM]	Structure (SMILES)	also measured
16	Cc1ccc2nc(CCc3nc(-c4ccccc4)cn3C)n3nc(C)cc3c2c1	IC50 [1]: 10000 nM; IC50 [2]: 10000 nM; IC50 [6]: 10000 nM; IC50 [7]: 10000 nM; IC50 [8]: 10000 nM
48	Cc1cc2c3ccccc3nc(CSc3nc(-c4ccccc4)cn3C)n2n1	
73	Cc1cc2c3cccc(Cl)c3nc(CSc3nc(-c4ccccc4)cn3C)n2n1	
76	Cc1ccc2nc(CSc3nc(-c4ccccc4)cn3C)n3nc(C)cc3c2c1	
50	Cc1cc2c3ccccc3nc(CCc3nc(-c4ccccc4)cn3C)n2n1	Drug uptake [10]: 150 ng/mL; Drug uptake [11]: 98 ng/mL; Kp [12]: 0.65
52	Cc1cc2c3cccc(Cl)c3nc(CCc3nc(-c4ccccc4)cn3C)n2n1	
50	Cc1cc2c3ccc(Cl)cc3nc(CCc3nc(-c4ccccc4)cn3C)n2n1	
16	Cc1cc2c3cc(Cl)ccc3nc(CCc3nc(-c4ccccc4)cn3C)n2n1	
37	COc1cccc2c1nc(CCc1nc(-c3ccccc3)cn1C)n1nc(C)cc21	
31	COc1ccc2c(c1)nc(CCc1nc(-c3ccccc3)cn1C)n1nc(C)cc21	

Source: ChEMBL document CHEMBL1641409, “Synthesis and SAR study of new phenylimidazole-pyrazolo[1,5-c]quinazolines as potent phosphodiesterase 10A inhibitors” (Bioorg Med Chem, 2011)
